Results reported in patent publication US5595763A (priority 1995, dated 1997).

How the values were obtained:
[1] = tested on: rat treated neonatally with low doses of streptozocin; details: in vivo
diabetic rats = details: treated diabetic rats, experiments run in parallel

**Q.** What does the source list for [Na+].[Na+].[O]=[W](=[O])([O-])[O-] [sodium tungstate]?
**A.** survival [1]: all animals survived; mortality (diabetic rats): about 10%
